Reference: patent US20250066853A1, “PHARMACEUTICAL COMPOSITION FOR THE TREATMENT AND/OR PREVENTION OF ANEURYSMS, DIAGNOSTIC SUPPORT METHOD FOR ANEURYSMS, AND METHOD FOR EVALUATING ANEURYSM THERAPEUTICS” (RIKEN, priority 2021, published 2025)
Entries after “also recorded” stand apart in the source; their conditions may differ.

Assays:
[1] = test system: AHNAK mutation-induced cerebral aneurysm model mice; test: AHNAK mutation-induced (AHNAKmini p.G3819A) cerebral aneurysm model mice, maximum diameter of cerebral blood vessels (Example 5); format: in vivo, mouse; details: day 7 to day 28 post-infection, 20 μL/g/day; PD173074 0.1 mg/mL, LY294002 0.02 mg/mL, staurosporine 0.02 mg/mL; versus non-administered group; PD173074 p<0.05
Description: To introduce AHNAK mutations into experimental animals, it is necessary to incorporate the gene into viral vectors or other vehicles. However, AHNAK is a large protein with a length of 5890 amino acids, making it difficult to incorporate its full-length gene into viral vectors. […] AHNAK has many repeat structures (CRU: Consensus Central Repeat Unit), and the mutation sites are also within the CRU. Therefore, we designed a low-molecular-weight version of AHNAK (AHNAKmini) that combines the […] in this order. […] The amino acid sequence of AHNAKmini is shortened to 1943 amino acids with an N-terminal FLAG tag.
The DNA encoding the AHNAKmini with the p.G3819A mutation was chemically synthesized and subcloned directly into a pAAV vector to prepare pAAV-CMV-AHNAK (SEQ ID NO: 19). This was further modified to have the mutation corresponding to p.G3819A (specifically, changing the 3156th guanine (g) in SEQ ID NO: 19 to cytosine (c)) to prepare pAAV-CMV-AHNAK p.G3819A. HEK293T cells were transfected with the pHelper vector, pRC vector, and pAAV-CMV-AHNAK p.G3819A, and cultured, after which AAV produced by the iodixanol gradient method was harvested (AAV-CMV-AHNAK p.G3819A). As a control, AAV encoding EGFP (AAV-CMV-EGFP) was similarly prepared. After determining the […] of AAV, it was mixed with a hydrogel of PBS comprising 15% Pluronic F-127.
Male C57BL/6N mice aged 8-11 weeks (CLEA Japan) were exposed to the middle cerebral artery according to the protocol described in A. Tamura et al., Journal of Cerebral Blood Flow and Metabolism, 1: 53-60 (1981). The hydrogel comprising AAV was applied multiple times at 5-minute intervals. The skull was covered with temporal fascia, the soft tissue was returned to its original position, and the skin was sutured. The total application amounts of AAV-CMV-EGFP and AAV-CMV-AHNAK p.G3819A were 2.4×10^10 vg and 3.3×10^11 vg, respectively. […]
After decapitation, the cerebral blood vessels were exposed, and the maximum diameter of the cerebral blood vessels was measured. […]

[2] = test system: mouse model of cerebral aneurysms (PDGFRβ p.559_562del); test: Mouse cerebral aneurysm model with AAV-introduced PDGFRβ p.559_562del, basilar artery size (Example 2); format: in vivo; details: mice with AAV PDGFRβ p.559_562del, daily i.p. sunitinib 40, axitinib 25, dasatinib 10 mg/kg/day, 28 days post-infection, versus vehicle, sunitinib p<0.05 (Mann-Whitney U)
Description: A mouse CA (cerebral aneurysm) model was constructed by applying adeno-associated virus (AAV) around the non-branching region of the basilar artery. HEK293T cells were transfected with pHelper vector, pRC vector, and a pAAV vector comprising the target gene. After culturing, AAV was harvested using the iodixanol gradient method. After determining the AAV serotype, it was mixed with a hydrogel of PBS comprising 15% Pluronic F-127. The virus concentrations (vg/mL) in the hydrogels of AAV-CMV-EGFP, AAV-CMV-PDGFRβ, and AAV-CMV-PDGFRβ p559_562del were 2×10^13, 1×10^12, and 1×10^12, respectively.
Male C57BL/6N mice aged 8-11 weeks (CLEA Japan) were deeply anesthetized with medetomidine (0.3 mg/kg), midazolam (4 mg/kg), and butorphanol (5 mg/kg) administered intraperitoneally (i.p.). The basilar artery was exposed as previously described (Yonekura et al., 2004). Three microliters of hydrogel were applied to the basilar artery and removed after 5 minutes. This application was repeated two more times. The mice were divided into three subgroups (control, PDGFRβ(wt), and PDGFRβ(mutant)). […]
To evaluate the effect of the virus, sections were stained with Elastica Van Gieson (EVG) method, selecting the largest artery section from each brain sample for measurement. […] The area and perimeter of the stained sites were calculated using FUJI-ImageJ software (J. Schindelin et al., Nature Methods, 2012).

[3] = test system: mouse model of cerebral aneurysms (PDGFRβ p.559_562del); test: Mouse cerebral aneurysm model with PDGFRβ p.559_562del, low-dose treatment from day 7, maximum diameter of basilar artery (Example 3)
Description: After deep anesthesia with isoflurane, the mice were decapitated, and the cerebral blood vessels were exposed to measure the maximum diameter of the basilar artery. Each drug administration condition was tested on three mice.

**Q.** How did the “Increase in maximum cerebral vessel diameter” value (“Increase” for short) [1] turn out when `O=c1cc(N2CCOCC2)oc2c(-c3ccccc3)cccc12` [LY294002] was run?
**A.** Its value is “suppressed in all mice”.

**Q.** `CCN(CC)CCCCNc1ncc2cc(-c3cc(OC)cc(OC)c3)c(NC(=O)NC(C)(C)C)nc2n1` [PD173074] was tested. Which “Increase” value [1] did it give?
**A.** The value was “significant suppression”.

**Q.** With `CNC(=O)c1ccccc1Sc1ccc2c(/C=C/c3ccccn3)n[nH]c2c1` [axitinib] as the compound, how does the “Enlargement (dilation) of basilar artery” value ([2]; listed as avitinib) read?
**A.** The value was “suppressed this arterial dilation”.

**Q.** With `Cc1nc(Nc2ncc(C(=O)Nc3c(C)cccc3Cl)s2)cc(N2CCN(CCO)CC2)n1` [dasatinib] as the compound, how does the “Enlargement (dilation) of basilar artery” value [2] read?
**A.** Its value is “suppressed this arterial dilation”.

**Q.** What about the “Maximum diameter of basilar artery (cerebral vessel expansion) compared to sunitinib” value ([3]; i.p. daily day 7 to day 28, axitinib 0.76, dasatinib 1.0, sunitinib 0.78 mg/kg/day, three mice each, dasatinib vs sunitinib p=0.040) of the same compound?
**A.** Its value is “significantly suppressed cerebral vessel expansion”.

**Q.** And the “Treatment effect on cerebral artery expansion (rank order)” value ([3]; low concentration ranges, administration from day 7 after mutation introduction)?
**A.** Its value is “highest for dasatinib; also recorded: high treatment/preventive effects”.

**Q.** Which “Increase” value [1] does the source give for `CN[C@@H]1C[C@H]2O[C@@](C)([C@@H]1OC)n1c3ccccc3c3c4c(c5c6ccccc6n2c5c31)C(=O)NC4` [staurosporine] here?
**A.** The value was “suppressed in all mice”.
